Species: Rattus norvegicus
Assay: Open TG-GATES - Regimen: Single
Assay type: toxicity, organism-based, Sprague-Dawley
Parameters: regimen Single, gender Male, age 6 weeks
Conditions: in vivo, po, 0 mg/kg, route gavage, dose level Control; for APTT / Bas / Eos / Fbg / Hb / Ht / Lym / MCHC / MCV / Mono / Neu / PT / Plat / RBC / Ret / WBC: tissue Blood; for KIDNEY_L / KIDNEY_R / KIDNEY_TOTAL: tissue Kidney; for LIVER: tissue Liver; for ALP / ALT / AST / BUN / CRE / DBIL / GLC / IP / K / LDH / Na / PL / RALB / TBIL / TC / TG / TP / gamma-GTP: tissue Plasma

Q: Which results are given for C#C[C@]1(O)CC[C@H]2[C@@H]3CCC4=Cc5oncc5C[C@]4(C)[C@H]3CC[C@@]21C [DANAZOL]?
A: TERMINAL_BW (3 h): 212.9 g; APTT (3 h): 23 s; Bas (3 h): 0%; Eos (3 h): 1%; Fbg (3 h): 292.6 mg/dL; Hb (3 h): 13.2 g/dL; Ht (3 h): 40%; Lym (3 h): 77.2%; MCHC (3 h): 33.1%; MCV (3 h): 62.5 fL; Mono (3 h): 2.4%; Neu (3 h): 19.6%; PT (3 h): 15.8 s; Plat (3 h): 111.7 x10_4/uL; RBC (3 h): 641.4 x10_4/ul; Ret (3 h): 7%; WBC (3 h): 76.3 x10_2/uL; KIDNEY_L (3 h): 0.9 g; KIDNEY_R (3 h): 0.9 g; KIDNEY_TOTAL (3 h): 1.9 g; LIVER (3 h): 10.1 g; ALP (3 h): 1527.4 IU/L; ALT (3 h): 41.8 IU/L; AST (3 h): 78.2 IU/L; BUN (3 h): 14.2 mg/dL; CRE (3 h): 0.1 mg/dL; DBIL (3 h): 0 mg/dL; GLC (3 h): 187.6 mg/dL; IP (3 h): 7.9 mg/dL; K (3 h): 4.1 meq/L; LDH (3 h): 204.4 IU/L; Na (3 h): 142.8 meq/L; PL (3 h): 131.8 mg/dL; RALB (3 h): 3 g/dL; TBIL (3 h): 0.01 mg/dL; TC (3 h): 76.8 mg/dL; TG (3 h): 70.8 mg/dL; TP (3 h): 5.5 g/dL; gamma-GTP (3 h): 2 IU/L; TERMINAL_BW (6 h): 212.9 g; APTT (6 h): 23.5 s; Bas (6 h): 0%; Eos (6 h): 1%; Fbg (6 h): 300.6 mg/dL; Hb (6 h): 13.1 g/dL; Ht (6 h): 39.8%; Lym (6 h): 81.2%; MCHC (6 h): 32.8%; MCV (6 h): 63 fL; Mono (6 h): 2.2%; Neu (6 h): 14.8%; PT (6 h): 16.1 s; Plat (6 h): 114.9 x10_4/uL; RBC (6 h): 632 x10_4/ul; Ret (6 h): 7.2%; WBC (6 h): 105 x10_2/uL; KIDNEY_L (6 h): 0.9 g; KIDNEY_R (6 h): 1 g; KIDNEY_TOTAL (6 h): 1.9 g; LIVER (6 h): 9.1 g; ALP (6 h): 1276.8 IU/L; ALT (6 h): 39.4 IU/L; AST (6 h): 73.4 IU/L; BUN (6 h): 9.2 mg/dL; CRE (6 h): 0.1 mg/dL; DBIL (6 h): 0 mg/dL; GLC (6 h): 182 mg/dL; IP (6 h): 9 mg/dL; K (6 h): 4.3 meq/L; LDH (6 h): 168.6 IU/L; Na (6 h): 141 meq/L; PL (6 h): 118.2 mg/dL; RALB (6 h): 3 g/dL; TBIL (6 h): 0.02 mg/dL; TC (6 h): 65.4 mg/dL; TG (6 h): 49.4 mg/dL; TP (6 h): 5.3 g/dL; gamma-GTP (6 h): 1.4 IU/L; TERMINAL_BW (9 h): 209.9 g; APTT (9 h): 22.7 s; Bas (9 h): 0%; Eos (9 h): 0.2%; Fbg (9 h): 295.4 mg/dL; Hb (9 h): 13.3 g/dL; Ht (9 h): 40.9%; Lym (9 h): 83%; MCHC (9 h): 32.5%; MCV (9 h): 64 fL; Mono (9 h): 2%; Neu (9 h): 13.6%; PT (9 h): 16.3 s; Plat (9 h): 114.3 x10_4/uL; RBC (9 h): 639.2 x10_4/ul; Ret (9 h): 7.6%; WBC (9 h): 87.3 x10_2/uL; KIDNEY_L (9 h): 1 g; KIDNEY_R (9 h): 1 g; KIDNEY_TOTAL (9 h): 2 g; LIVER (9 h): 9.1 g; ALP (9 h): 1266 IU/L; ALT (9 h): 33.2 IU/L; AST (9 h): 63.6 IU/L; BUN (9 h): 11.2 mg/dL; CRE (9 h): 0.1 mg/dL; DBIL (9 h): 0 mg/dL; GLC (9 h): 199.8 mg/dL; IP (9 h): 10.1 mg/dL; K (9 h): 4.2 meq/L; LDH (9 h): 144.2 IU/L; Na (9 h): 141.8 meq/L; PL (9 h): 124 mg/dL; RALB (9 h): 2.9 g/dL; TBIL (9 h): 0.016 mg/dL; TC (9 h): 69.8 mg/dL; TG (9 h): 54.8 mg/dL; TP (9 h): 5.4 g/dL; gamma-GTP (9 h): 1.2 IU/L; TERMINAL_BW (24 h): 231.9 g; APTT (24 h): 23.6 s; Bas (24 h): 0%; Eos (24 h): 0.8%; Fbg (24 h): 281 mg/dL; Hb (24 h): 13.3 g/dL; Ht (24 h): 40.2%; Lym (24 h): 81.4%; MCHC (24 h): 32.9%; MCV (24 h): 63.2 fL; Mono (24 h): 2.2%; Neu (24 h): 14.8%; PT (24 h): 15.7 s; Plat (24 h): 114.7 x10_4/uL; RBC (24 h): 637.4 x10_4/ul; Ret (24 h): 7.3%; WBC (24 h): 102.5 x10_2/uL; KIDNEY_L (24 h): 1 g; KIDNEY_R (24 h): 1 g; KIDNEY_TOTAL (24 h): 2.1 g; LIVER (24 h): 11.3 g; ALP (24 h): 1604 IU/L; ALT (24 h): 48.2 IU/L; AST (24 h): 74.8 IU/L; BUN (24 h): 18.6 mg/dL; CRE (24 h): 0.1 mg/dL; DBIL (24 h): 0 mg/dL; GLC (24 h): 197.8 mg/dL; IP (24 h): 7.8 mg/dL; K (24 h): 4.2 meq/L; LDH (24 h): 173.8 IU/L; Na (24 h): 142.2 meq/L; PL (24 h): 140 mg/dL; RALB (24 h): 3 g/dL; TBIL (24 h): 0.006 mg/dL; TC (24 h): 74.6 mg/dL; TG (24 h): 93 mg/dL; TP (24 h): 5.5 g/dL
